Test results published in patent US7629310B2, “RhoB as a suppressor of cancer cell growth, cell transformation, and metastasis” (University of South Florida, priority 2000, dated 2009).

Assays:
[1] = test system: RhoB promoter; experiment: RhoB promoter transcriptional activity (luciferase reporter) in NIH3T3 cells; type: cell-based
Text: Gene Constructs and RhoB Promoter Transcriptional Activity Assay. Constitutively active H-Ras61L, K-RasV12, N-RasV12, and dominant negative […]-Ras were kind gifts from Dr. Channing Der (University of North Carolina) (Khosravi-Far, R. et al., Mol Cell Biol, 1995, 15:6443-53; Quilliam, L. A. et al., Mol Cell Biol, 1994, 14:1113-21). Wild-type RhoA and RhoB were subcloned into hemaglutinin (HA)-tagged pcDNA3 (INVITROGEN). The orientation and the sequences of these genes were confirmed by DNA sequencing facilities at the H. Lee Moffitt Cancer Center, Tampa, Fla. RhoB promoter construct pGEI was kindly provided by Dr Y. Monden (Banyu Tsukuba Research, Japan) (Nakamura et al., 1996). pCMV-β-galactosidase vector was purchased from INVITROGEN. The plasmid containing CA-, DN-PI3K, Mek and Akt were kindly provided by Dr. Julie Y. Djeu (H. Lee Moffitt Cancer and Research Institute, Tampa, Fla.) (Jiang, K. et al., Blood, 2003, 101:236-44). β-galactosidase activity and luciferase assay kits were purchased from PROMEGA Corporation, Madison, Wis. The serum response element (SRE) reporter was provided by Dr. Richard Jove, H. Lee Moffitt Cancer and Research Institute, Tampa, Fla. (Turkson, J. et al., Mol Cell Biol, 1999, 19:7519-28). […] Richard Jove, Oncology program, H. Lee Moffitt Cancer and Research Institute, Tampa, Fla. (Turkson, J. et al., Mol Cell Biol, 1999, 19:7519-28). […] (Luetteke, N. C. et al., Genes Dev, 1994, 8:399-413). DNA transfection was performed with the standard lipofectamine protocol (INVITROGEN). […] After transfection the cells were grown for another 36-48 h. Cells were then washed twice with PBS and lyzed in Promega Passive Lysis Buffer. Aliquots of the lysates were then used to measure the luciferase and β-galactosidase activities. The luciferase values were first divided by β-galactosidase values. The RhoB promoter transcriptional activity was determined by dividing the luciferase/β-Gal values from oncogene-transfected cells by those from pcDNA3-transfected cells. […] All the samples were performed in triplicate and the averages of 3 independent experiments were reported here.

[2] = test system: RhoB promoter; experiment: RhoB promoter transcriptional activity (luciferase reporter) in human cancer cell lines A-549, Panc-1, C33A; type: cell-based; conditions: PANC-1 and A-549 cells expressing mutated K-Ras
Text: Gene Constructs and RhoB Promoter Transcriptional Activity Assay. Constitutively active H-Ras61L, K-RasV12, N-RasV12, and dominant negative […]-Ras were kind gifts from Dr. Channing Der (University of North Carolina) (Khosravi-Far, R. et al., Mol Cell Biol, 1995, 15:6443-53; Quilliam, L. A. et al., Mol Cell Biol, 1994, 14:1113-21). Wild-type RhoA and RhoB were subcloned into hemaglutinin (HA)-tagged pcDNA3 (INVITROGEN). The orientation and the sequences of these genes were confirmed by DNA sequencing facilities at the H. Lee Moffitt Cancer Center, Tampa, Fla. RhoB promoter construct pGEI was kindly provided by Dr Y. Monden (Banyu Tsukuba Research, Japan) (Nakamura et al., 1996). pCMV-β-galactosidase vector was purchased from INVITROGEN. The plasmid containing CA-, DN-PI3K, Mek and Akt were kindly provided by Dr. Julie Y. Djeu (H. Lee Moffitt Cancer and Research Institute, Tampa, Fla.) (Jiang, K. et al., Blood, 2003, 101:236-44). β-galactosidase activity and luciferase assay kits were purchased from PROMEGA Corporation, Madison, Wis. The serum response element (SRE) reporter was provided by Dr. Richard Jove, H. Lee Moffitt Cancer and Research Institute, Tampa, Fla. […] Richard Jove, Oncology program, H. Lee Moffitt Cancer and Research Institute, Tampa, Fla. […] Human EGFR, ErbB2 cDNA construct were kindly provided by Dr. Noreen Luetteke, H. Lee Moffitt Cancer and Research Institute, Tampa, Fla. (Luetteke, N. C. et al., Genes Dev, 1994, 8:399-413). DNA transfection was performed with the standard lipofectamine protocol (INVITROGEN). Briefly, cells were plated in 60-mm plates, pGEI plasmid was used at 2 μg per plate, whereas all the other plasmids were used at 0.1-1.0 μg per plate. After transfection the cells were grown for another 36-48 h. Cells were then washed twice with PBS and lyzed in Promega Passive Lysis Buffer. Aliquots of the lysates were then used to measure the luciferase and β-galactosidase activities. The luciferase values were first divided by β-galactosidase values. The RhoB promoter transcriptional activity was determined by dividing the luciferase/β-Gal values from oncogene-transfected cells by those from pcDNA3-transfected cells. […] All the samples were performed in triplicate and the averages of 3 independent experiments were reported here. Proteins that induce malignant transformation and those that suppress tumorigenesis most likely antagonize each other's functions. […] Du, W. et al., Mol Cell Biol, 1999, 19:1831-40; Du, W. and Prendergast, G. C., Cancer Res, 1999, 59:5492-6). An objective of the experiments described herein was to determine whether oncogenes that are prevalent in human cancers suppress RhoB expression, and whether RhoB antagonizes the ability of these oncogenes to induce malignant transformation. To this end, the effects of several oncogenes on RhoB promoter transcriptional activity were first evaluated. NIH3T3 cells and human cancer cell lines derived from lung (A-549), pancreatic (Panc-1) and cervical (C33A) tumors were transiently transfected with pcDNA3 empty vectors or pcDNA3 constructs containing various oncogenes along with full length RhoB promoter firefly luciferase reporter and SRE-renilla luciferase reporter as well as a β-gal reporter for controlling transfection efficiency as described in the Materials and Methods section.

**Q.** With O=c1[nH]cc(F)c(=O)[nH]1 [5-FU, 5-fluorouracil] as the compound, how does the “induction of RhoB promoter activity” value ([1]; NIH3T3, 5-FU 2.0 μM 12 hours (FIG. 6A)) read?
**A.** The value was 2 fold.

**Q.** What about the “induction of RhoB promoter activity” value ([1]; NIH3T3, 5-FU 2 μM for 12 hours, absence of oncogenes (FIG. 2A)) of the same compound?
**A.** Its value is “more than 4 fold”.

**Q.** What about the “induction of RhoB promoter activity” value ([1]; NIH3T3, 5-FU 2 μM for 12 hours, in the presence of H-Ras, N-Ras, and K-Ras (FIG. 2A)) of the same compound?
**A.** The value was “only one fold or less than one fold”.

**Q.** What about the “5-FU induction of RhoB promoter activity” value [2] of the same compound?
**A.** Its value is “both cell lines are resistant to 5-FU”.
